Assays:
[1] = Example 9: food effect (high-fat meal) on exposure; type: in vivo; conditions: 150 mg dose with a high-fat meal
Method: The effect of a high-fat breakfast on ripretinib and Compound A exposure was evaluated. A high fat meal consisted of approximately 150, 250, and 500-600 calories from protein, carbohydrate, and fat, respectively. […] Therefore, ripretinib may be taken with or without food at approximately same time each day.

[2] = Example 8: coadministration with proton-pump inhibitor (pantoprazole), exposure; type: in vivo; conditions: ripretinib coadministered with pantoprazole
Method: The effect of a proton-pump inhibitor on the exposure of ripretinib was evaluated.

[3] = Example 7: coadministration with strong CYP3A inhibitor (itraconazole), exposure; type: in vivo; conditions: coadministration of ripretinib with itraconazole
[4] = tested on: GIST with KIT exon 11 primary mutations; conditions: cited from earlier work

Structure (SMILES)	AUC0-24h higher by [1] [%]	Cmax higher by [1] [%]	Difference in plasma exposure [2]	Increase in AUC0-inf [3] [%]	Increase in Cmax [3]	2-year relapse-free survival ([4]; adjuvant setting) [%]	Median event-free survival ([4]; metastatic setting)
CCn1c(=O)c(-c2cc(NC(=O)Nc3ccccc3)c(F)cc2Br)cc2cnc(N)cc21 [Compound A]	47	66	No clinically significant differences	99	no change	–	–
Cc1ccc(NC(=O)c2ccc(CN3CCN(C)CC3)cc2)cc1Nc1nccc(-c2cccnc2)n1 [imatinib]	–	–	–	–	–	~90	under 2 years
